Experimental data published in US8461189B2, “Pyridyl derivatives as histone deacetylase inhibitors” (Merck Sharp & Dohme Corp., priority 2007, dated 2013).
Read-outs that look alike come from different tables or passages of the source.

Assays:
Cyp 2D6 = Cyp 2D6 (Homo sapiens, UniProt P10635); assay: Cyp inhibition, Cyp2D6; format: in vitro ADME; settings: read-out: Percent Cyp inhibition, 2D6
Cyp3A4 = Cyp3A4 (Homo sapiens, UniProt P08684); assay: Cyp inhibition, Cyp3A4; format: in vitro ADME; settings: read-out: Percent Cyp inhibition, Cyp3A4
Sequence of Cyp3A4 (P08684 whole entry, species assumed): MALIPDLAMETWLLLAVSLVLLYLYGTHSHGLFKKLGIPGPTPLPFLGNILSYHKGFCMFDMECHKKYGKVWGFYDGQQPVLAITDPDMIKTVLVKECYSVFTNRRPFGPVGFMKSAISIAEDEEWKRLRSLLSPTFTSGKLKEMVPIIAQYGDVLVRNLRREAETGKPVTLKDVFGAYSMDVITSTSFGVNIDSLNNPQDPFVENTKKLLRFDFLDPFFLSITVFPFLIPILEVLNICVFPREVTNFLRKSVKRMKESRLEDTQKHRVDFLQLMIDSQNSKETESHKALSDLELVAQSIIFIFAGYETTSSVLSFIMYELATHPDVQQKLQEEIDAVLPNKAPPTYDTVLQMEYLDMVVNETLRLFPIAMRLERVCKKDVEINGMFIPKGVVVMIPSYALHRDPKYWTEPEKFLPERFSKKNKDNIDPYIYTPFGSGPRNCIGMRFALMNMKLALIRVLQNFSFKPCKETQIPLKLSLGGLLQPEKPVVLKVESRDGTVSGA

HCT-116 cells = assay: ATP (Vialight) cell proliferation assay, HCT-116; format: cell-based; settings: Homo sapiens
Protocol: (§1) The novel compounds of the present invention were tested for their ability to inhibit proliferation of the human cervical cancer (HeLa) and colon carcinoma (HCT116) cells.
(§2) In this assay, also referred to as the Vialight Assay, cellular ATP levels are measured as a means of quantifying cellular proliferation. This assay makes use of a bioluminescent method from Cambrex (ViaLight PLUS, cat. #LT07-121). In the presence of ATP, luciferase converts luciferin to oxyluciferin and light. The amount of light produced (emission at 565 nm) is measured and correlates with a relative amount of proliferation. Human cervical cancer (HeLa) or colon carcinoma (HCT116) cells were incubated with vehicle or increasing concentrations of compound for 48, 72 or 96 hours. Cell proliferation was quantified by adding the cell lysis reagent (provided in the Vialight assay kit) directly to culture wells, followed by addition of the ATP-monitoring reagent (containing luciferase/luciferin). The amount of light produced is then measured (emission at 565 nm). The quantity of light produced, as measured by […], is directly proportional to the number of living cells in culture.

human HDAC1 complex = target: T1, human HDAC1 complex (Homo sapiens, UniProt Q13547); assay: HDAC1-Flag in vitro deacetylation assay; format: biochemical
T1 construct: Flag; made in house
T1 sequence (Q13547 whole entry, one chain of several): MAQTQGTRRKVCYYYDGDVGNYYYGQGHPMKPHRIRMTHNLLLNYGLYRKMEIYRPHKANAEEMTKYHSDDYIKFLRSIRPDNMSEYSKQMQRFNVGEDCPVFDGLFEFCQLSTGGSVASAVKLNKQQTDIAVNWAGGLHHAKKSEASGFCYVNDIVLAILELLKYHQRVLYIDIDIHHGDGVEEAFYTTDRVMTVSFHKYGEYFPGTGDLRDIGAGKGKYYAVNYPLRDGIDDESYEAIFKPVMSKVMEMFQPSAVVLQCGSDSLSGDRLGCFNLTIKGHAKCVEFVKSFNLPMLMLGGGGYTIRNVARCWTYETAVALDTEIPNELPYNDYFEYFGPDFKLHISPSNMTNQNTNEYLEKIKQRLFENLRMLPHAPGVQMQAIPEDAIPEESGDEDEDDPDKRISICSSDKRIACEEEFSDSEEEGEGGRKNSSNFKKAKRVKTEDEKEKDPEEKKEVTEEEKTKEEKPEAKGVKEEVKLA
Protocol: Novel compounds were tested for their ability to inhibit histone deacetylase, subtype 1 (HDAC1) using an in vitro deacetylation assay. The enzyme source for this assay was an epitope-tagged human HDAC1 complex immuno-purified from stably expressing mammalian cells. The substrate consisted of a commercial product containing an acetylated lysine side chain (BIOMOL Research Laboratories, Inc., Plymouth Meeting, Pa.). Upon deacetylation of the substrate by incubation with the purified HDAC1 complex, a fluorophore is produced that is directly proportional to the level of deacetylation. Using a substrate concentration at the Km for the enzyme preparation, the deacetylation assay was performed in the presence of increasing concentrations of novel compounds to semi-quantitatively determine the concentration of compound required for 50% inhibition (IC50) of the deacetylation reaction.

MK-499 binding = MK-499 binding (Homo sapiens, UniProt Q12809); assay: MK-499 binding; settings: read-out: inflection point for MK-499 binding
Sequence of MK-499 binding (Q12809 whole entry): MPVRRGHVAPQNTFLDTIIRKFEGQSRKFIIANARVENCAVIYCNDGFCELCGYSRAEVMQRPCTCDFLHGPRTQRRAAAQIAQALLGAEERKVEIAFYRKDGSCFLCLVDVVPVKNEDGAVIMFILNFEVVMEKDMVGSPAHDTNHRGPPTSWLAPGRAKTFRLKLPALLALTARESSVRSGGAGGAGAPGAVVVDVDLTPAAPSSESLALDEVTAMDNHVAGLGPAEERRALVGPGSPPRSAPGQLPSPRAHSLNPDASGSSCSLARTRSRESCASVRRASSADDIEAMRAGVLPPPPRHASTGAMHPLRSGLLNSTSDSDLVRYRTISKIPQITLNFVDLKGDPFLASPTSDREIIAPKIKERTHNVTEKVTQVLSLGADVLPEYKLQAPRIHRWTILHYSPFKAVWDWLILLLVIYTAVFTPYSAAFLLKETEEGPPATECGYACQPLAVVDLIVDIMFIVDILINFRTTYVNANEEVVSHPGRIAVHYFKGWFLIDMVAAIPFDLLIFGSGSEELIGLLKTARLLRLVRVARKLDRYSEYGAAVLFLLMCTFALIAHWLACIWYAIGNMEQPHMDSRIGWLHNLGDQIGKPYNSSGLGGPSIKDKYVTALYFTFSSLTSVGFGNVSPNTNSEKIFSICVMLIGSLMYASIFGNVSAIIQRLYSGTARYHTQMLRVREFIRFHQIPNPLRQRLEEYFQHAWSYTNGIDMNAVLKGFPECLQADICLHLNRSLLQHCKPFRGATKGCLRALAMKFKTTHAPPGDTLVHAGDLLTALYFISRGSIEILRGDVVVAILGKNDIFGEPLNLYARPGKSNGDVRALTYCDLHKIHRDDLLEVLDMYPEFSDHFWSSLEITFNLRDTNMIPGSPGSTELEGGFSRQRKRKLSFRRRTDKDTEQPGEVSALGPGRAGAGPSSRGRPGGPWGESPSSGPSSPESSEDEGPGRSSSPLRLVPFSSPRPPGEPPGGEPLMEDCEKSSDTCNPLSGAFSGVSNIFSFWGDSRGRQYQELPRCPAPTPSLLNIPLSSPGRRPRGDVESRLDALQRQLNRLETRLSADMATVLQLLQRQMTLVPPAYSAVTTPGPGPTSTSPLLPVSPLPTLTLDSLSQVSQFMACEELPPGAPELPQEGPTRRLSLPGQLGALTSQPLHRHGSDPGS

Cyp 2C9 = Cyp 2C9 (Homo sapiens, UniProt P11712); assay: Cyp inhibition, Cyp2C9; format: in vitro ADME; settings: read-out: Percent Cyp inhibition, 2C9
Sequence of Cyp 2C9 (P11712 whole entry): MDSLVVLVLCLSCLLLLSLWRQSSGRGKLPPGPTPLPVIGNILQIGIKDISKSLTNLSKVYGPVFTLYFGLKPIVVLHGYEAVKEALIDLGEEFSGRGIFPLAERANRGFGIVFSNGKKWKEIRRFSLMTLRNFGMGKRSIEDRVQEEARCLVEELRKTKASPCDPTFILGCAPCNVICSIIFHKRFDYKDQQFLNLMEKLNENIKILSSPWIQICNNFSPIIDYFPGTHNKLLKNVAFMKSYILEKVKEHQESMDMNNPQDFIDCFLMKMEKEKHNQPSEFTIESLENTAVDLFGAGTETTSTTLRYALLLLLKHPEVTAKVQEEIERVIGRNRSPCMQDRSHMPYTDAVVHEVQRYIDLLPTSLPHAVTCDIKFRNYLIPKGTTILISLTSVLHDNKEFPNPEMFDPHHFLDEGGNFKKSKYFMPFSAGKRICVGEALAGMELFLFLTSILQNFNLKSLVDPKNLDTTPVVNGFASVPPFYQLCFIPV

[1] = tested on: human cervical cancer (HeLa) or colon carcinoma (HCT116) cells; assay: Prol-72 hr, ATP (Vialight) proliferation assay, cell line not given; format: cell-based; settings: Table 2, IP = inflection point, cell line not stated
Protocol: as §1, §2

[2] = Table 3, IP = inflection point, read-out: HDAC 1 IP*
[3] = Table 2, IP = inflection point, read-out: HDAC1 IP*

Sequence of Cyp 2D6 (P10635 whole entry): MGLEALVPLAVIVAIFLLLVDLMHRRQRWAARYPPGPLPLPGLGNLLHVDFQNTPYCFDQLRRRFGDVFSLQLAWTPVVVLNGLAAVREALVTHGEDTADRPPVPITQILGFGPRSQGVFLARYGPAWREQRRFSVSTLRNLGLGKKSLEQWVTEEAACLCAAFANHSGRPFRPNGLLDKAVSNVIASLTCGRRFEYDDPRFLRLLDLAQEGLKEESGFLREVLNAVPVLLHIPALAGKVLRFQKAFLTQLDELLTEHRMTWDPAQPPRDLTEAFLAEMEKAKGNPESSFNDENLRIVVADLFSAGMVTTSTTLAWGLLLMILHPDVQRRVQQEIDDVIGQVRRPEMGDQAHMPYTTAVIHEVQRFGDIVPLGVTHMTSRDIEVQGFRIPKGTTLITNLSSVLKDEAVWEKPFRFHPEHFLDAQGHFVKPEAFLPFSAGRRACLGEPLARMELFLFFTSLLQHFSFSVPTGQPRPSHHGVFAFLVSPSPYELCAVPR

inhibition at 10 µM (Cyp 2D6) [%] | inhibition at 10 µM (Cyp3A4) [%] | IC50 (HCT-116 cells) [µM] | IC50 (human HDAC1 complex; read-out: in vitro HDAC1 IC50) [µM] | IC50 (MK-499 binding) [µM] | inhibition at 10 µM (Cyp 2C9) [%] | IC50 (human HDAC1 complex; [3]) [µM] | IC50 [1] [µM] | SMILES | IC50 (human HDAC1 complex; [2]) [µM]
 |  |  |  |  |  | 1.16 |  | Nc1ccc(-c2ccccc2)nc1NC(=O)c1ccccc1 [N-(3-amino-6-phenylpyridin-2-yl)benzamide] | 
 |  | 2.05 | 0.086 |  |  |  |  | CC(=O)Nc1ccc(C(=O)Nc2nc(-c3ccccc3)ccc2N)cc1 [4-(Acetylamino)-N-(3-amino-6-phenylpyridin-2-yl)benzamide] | 
 |  |  |  |  |  | 0.195 | 20 | COC(=O)c1ccc(C(=O)Nc2nc(-c3ccccc3)ccc2N)cc1 [benzoic acid, methyl 4-[[(3-amino-6-phenyl-2-pyridinyl)amino]carbonyl]benzoate] | 
 |  |  |  |  |  | 0.235 | 20 | CC(C)(C)c1ccc(C(=O)Nc2nc(-c3ccccc3)ccc2N)cc1 [N-(3-amino-6-phenyl-2-pyridinyl)-4-(1,1-dimethylethyl) benzamide] | 
27 | 29 | 1.2 | 0.037 | > 10 | 49 |  |  | COC(=O)NCc1ccc(C(=O)Nc2nc(-c3ccccc3)ccc2N)cc1 [Methyl(4-{[(3-amino-6-phenylpyridin-2-yl)amino]carbonyl}benzyl)carbamate] | 

Further lines, the molecule ahead of its results:

SMILES | inhibition at 10 µM (Cyp 2D6) [%] | inhibition at 10 µM (Cyp3A4) [%] | IC50 (HCT-116 cells) [µM] | IC50 (human HDAC1 complex; read-out: in vitro HDAC1 IC50) [µM] | IC50 (MK-499 binding) [µM] | inhibition at 10 µM (Cyp 2C9) [%] | IC50 (human HDAC1 complex; [3]) [µM] | IC50 [1] [µM] | IC50 (human HDAC1 complex; [2]) [µM]
Nc1ccc(-c2ccccc2)nc1NC(=O)c1ccc(CNC(=O)OCc2ccccc2)cc1 [Benzyl(4-{[(3-amino-6-phenylpyridin-2-yl)amino]carbonyl}benzyl)carbamate] | 24 | 7 | 0.59 | 0.032 | 12.2 | 25 |  |  | 
Nc1ccc(-c2ccccc2)nc1NC(=O)c1ccc(CNC(=O)Oc2ccccc2)cc1 [phenyl (4-{[(3-amino-6-phenylpyridin-2-yl)amino]carbonyl}benzyl)carbamate] |  |  |  |  |  |  |  |  | 0.012
Nc1ccc(-c2ccccc2)nc1NC(=O)c1ccc(CNC(=O)OCc2ccccn2)cc1 [Pyridin-2-ylmethyl(4-{[(3-amino-6-phenylpyridin-2-yl)amino]carbonyl}benzyl)carbamate] | 24 | 27 | 0.56 | 0.035 | 2540 | 47 |  |  | 
CCOC(=O)NCc1ccc(C(=O)Nc2nc(-c3ccccc3)ccc2N)cc1 [ethyl (4-{[(3-amino-6-phenylpyridin-2-yl)amino]carbonyl}benzyl)carbamate] |  |  |  |  |  |  |  |  | 0.011
Nc1ccc(-c2cccs2)nc1NC(=O)c1ccc(CNC(=O)OCc2cccnc2)cc1 [pyridin-3-ylmethyl {[4-({[3-amino-6-(2-thienyl)pyridin-2-yl]amino}carbonyl)phenyl]methyl}carbamate] |  |  | 0.56 | 0.056 |  |  |  |  | 
Nc1ccc(-c2ccccc2)nc1NC(=O)c1ccc(CNC(=O)OCc2cccnc2)cc1 [Pyridin-3-ylmethyl[(4-{[(3-amino-6-phenylpyridin-2-yl)amino]carbonyl}phenyl)methyl]carbamate] | 55 | 46 | 0.58 | 0.084 | > 30 | 54 |  |  | 
